Reference: patent US9409952B2, “Peptide-compound cyclization method” (Chugai Seiyaku Kabushiki Kaisha, priority 2011, dated 2016)
Where two headings read alike, the source gives them in different places. Starred links: 1 amine or outer side, 2 acyl side, 3 side chain; linkers in the order of their positions; H or OH if unused. Positions of bridges follow the written chain, without caps; N, C: chain ends. Non-standard residues stand in square brackets, D forms with d. Residues, ends and D or L forms follow the SMILES beside them. *: point of attachment. NMeF = CN[C@@H](Cc1ccccc1)C(=O)O; NMeI = CC[C@H](C)[C@H](NC)C(=O)O; NMeβAla = CN(CCC(=O)[*:2])[*:1]; NMeL = CN[C@@H](CC(C)C)C(=O)O; NMeV = CN[C@H](C(=O)O)C(C)C; NMeS = CN[C@@H](CO)C(=O)O; NMeA = CN[C@@H](C)C(=O)O; Piperidide = C1CCN(*)CC1; dNMeA = CN[C@H](C)C(=O)O; β3hA = C[C@H](N)CC(=O)O; Sar = CNCC(=O)O; tBu = CC(C)(C)*

Tests used:
[1] = PAMPA (parallel artificial membrane permeability assay); format: in vitro ADME; conditions: PAMPA
How it was run: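 Artificial membrane was 10% (w/v) egg lecithin plus 0.5% (w/v) cholesterol in dodecane on a PVDF filter. A 10 mM DMSO stock was added at 0.5% (v/v) to donor buffer (50 mM MOPSO, pH 6.5, 5.0% glycocholic acid). After 18 h at 37 °C, LC/MS or LC/UV gave donor and acceptor levels for Pe.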

[2] = Metabolic stability in human hepatic microsome; format: in vitro ADME; conditions: microsomes
[3] = membrane permeation rate (Pe), 50 mM MOPSO buffer pH 6.5 with 5.0% glycocholic acid, 37° C., 18 hours, read-out: iPAMPA Pe
[4] = pH 7.4, human hepatic microsome, NADPH(+), read-out: CL NADPH(+)

Structure (SMILES) | Papp at 18 hours, 50 µM [1, 3] | microsomal CLint at 1 uM [2, 4] | Papp at 18 hours, 50 µM ([1]; pH 6.5) | microsomal CLint at 1 uM ([2]; human, pH 7.4, CL NADPH(+))
CC(C)C[C@@H]1NC(=O)[C@H](C(C)C)NC(=O)C[C@@H](C(=O)N2CCCCC2)NC(=O)[C@H]([C@@H](C)O)NC(=O)CN(C)C(=O)[C@H](CC(C)C)N(C)C(=O)[C@H](CC(C)C)N(C)C1=O [DP-727] (VL[NMeL][NMeL][Sar]TD-Piperidide; lactam N-7) | 16 ×10⁻⁶ cm/s | 59 µL/min/mg | – | –
CC(C)C[C@H]1C(=O)N(C)[C@@H](CC(C)C)C(=O)N[C@H](C(=O)N2CCCCC2)CC(=O)N(C)[C@@H](C)C(=O)N(C)[C@@H](Cc2ccccc2)C(=O)N(C)[C@@H](CC(C)C)C(=O)N[C@@H]([C@@H](C)O)C(=O)N1C [DP-679] ([NMeA][NMeF][NMeL]T[NMeL][NMeL]D-Piperidide; lactam N-7) | 25 ×10⁻⁶ cm/s | 342 µL/min/mg | – | –
CC(C)C[C@@H]1NC(=O)[C@H]([C@@H](C)O)NC(=O)[C@H](CC(C)C)N(C)C(=O)CN(C)C(=O)[C@H](Cc2ccccc2)N(C)C(=O)[C@H](C(C)C)NC(=O)C[C@@H](C(=O)N2CCCCC2)NC(=O)[C@H](CC(C)C)N(C)C1=O [DP-690] (V[NMeF][Sar][NMeL]TL[NMeL]D-Piperidide; lactam N-8) | 33 ×10⁻⁶ cm/s | 217 µL/min/mg | – | –
CC(C)C[C@H]1C(=O)N(C)[C@@H](C)C(=O)N[C@@H](C(C)C)C(=O)N[C@H](C(=O)N(C)[C@@H](Cc2ccccc2)C(=O)N[C@@H](C)C(=O)N2CCCCC2)CC(=O)N(C)CCC(=O)N(C)[C@@H](C(C)C)C(=O)N(C)[C@@H](C)C(=O)N[C@@H](Cc2ccccc2)C(=O)N[C@@H]([C@@H](C)O)C(=O)N(C)[C@@H](C)C(=O)N1C [DP-448] ([NMeβAla][NMeV][NMeA]FT[NMeA][NMeL][NMeA]VD[NMeF]A-Piperidide; lactam N-10) | 6.2 ×10⁻⁶ cm/s | 27 µL/min/mg | – | –
CC(C)C[C@@H]1NC(=O)[C@H](CC(C)C)N(C)C(=O)[C@@H]2CCCN2C(=O)[C@H](CC(C)C)N(C)C(=O)[C@H](Cc2ccccc2)NC(=O)CNC(=O)[C@H](CC(C)C)N(C)C(=O)[C@H](Cc2ccccc2)NC(=O)CCN(C)C(=O)C[C@@H](C(=O)N(C)[C@@H](Cc2ccccc2)C(=O)N[C@@H](C)C(=O)N2CCCCC2)NC(=O)[C@H]([C@@H](C)O)NC1=O [DP-182] ([NMeβAla]F[NMeL]GF[NMeL]P[NMeL]LTD[NMeF]A-Piperidide; lactam N-11) | 26 ×10⁻⁶ cm/s | 9 µL/min/mg | – | –
CC[C@H](C)[C@@H]1NC(=O)[C@H](CC(C)C)NC(=O)CCN(C)C(=O)C[C@@H](C(=O)N2CCCCC2)NC(=O)[C@H](CC(C)C)NC(=O)[C@H](Cc2ccccc2)NC(=O)[C@H]([C@@H](C)O)NC(=O)[C@H](CC(C)C)NC(=O)[C@H](C(C)C)NC(=O)[C@H](CC(C)C)NC(=O)CN(C)C1=O [DP-411] ([NMeβAla]LI[Sar]LVLTFLD-Piperidide; lactam N-11) | 8.4 ×10⁻⁶ cm/s | 114 µL/min/mg | – | –
CC[C@H](C)[C@H]1C(=O)NCC(=O)N(C)[C@@H](Cc2ccccc2)C(=O)N(C)[C@@H](Cc2ccccc2)C(=O)N(C)[C@@H](CC(C)C)C(=O)N(C)[C@@H](CC(C)C)C(=O)N[C@H](C(=O)N2CCCCC2)CC(=O)N(C)[C@H](C)C(=O)N[C@@H]([C@@H](C)O)C(=O)N(C)[C@@H](C)C(=O)N1C [DP-74] ([dNMeA]T[NMeA][NMeI]G[NMeF][NMeF][NMeL][NMeL]D-Piperidide; lactam N-10) | – | – | 29 ×10⁻⁶ cm/s | 118 µL/min/mg
CC(C)C[C@H]1C(=O)N[C@@H](COC(C)(C)C)C(=O)N[C@H](C(=O)N2CCCCC2)CC(=O)N(C)[C@@H](C)C(=O)N(C)[C@@H](C)C(=O)N(C)[C@@H](Cc2ccccc2)C(=O)N(C)[C@@H](CC(C)C)C(=O)N[C@@H]([C@@H](C)O)C(=O)N(C)[C@@H](C)C(=O)N1C [DP-267] ([NMeA][NMeA][NMeF][NMeL]T[NMeA][NMeL]S(tBu)D-Piperidide; lactam N-9) | 25 ×10⁻⁶ cm/s | 75 µL/min/mg | – | –
CC[C@H](C)[C@@H]1NC(=O)[C@H](C)N(C)C(=O)[C@H]([C@@H](C)O)NC(=O)CN(C)C(=O)[C@H](C)N(C)C(=O)[C@H](C)NC(=O)[C@H](C)N(C)C(=O)[C@@H](C)N(C)C(=O)C[C@@H](C(=O)N(C)[C@@H](Cc2ccccc2)C(=O)N(C)[C@@H](Cc2ccccc2)C(=O)N[C@@H](C)C(=O)N2CCCCC2)NC(=O)[C@H](Cc2ccccc2)N(C)C1=O [DP-508] ([dNMeA][NMeA]A[NMeA][Sar]T[NMeA]I[NMeF]D[NMeF][NMeF]A-Piperidide; lactam N-10) | 2.5 ×10⁻⁶ cm/s | 11 µL/min/mg | – | –
CC(C)C[C@@H]1NC(=O)C[C@H](C)NC(=O)[C@H](C(C)C)NC(=O)[C@H](CC(C)C)N(C)C(=O)CN(C)C(=O)[C@H](CC(C)C)NC(=O)[C@H](CO)N(C)C(=O)[C@H](CC(C)C)N(C)C(=O)[C@H](CC(C)C)N(C)C(=O)[C@H](CC(C)C)N(C)C(=O)[C@@H](CC(C)C)NC1=O [DP-643] (cyclo(L[Sar][NMeL]V[β3hA]L[dL][NMeL][NMeL][NMeL][NMeS])) | 29 ×10⁻⁶ cm/s | 24 µL/min/mg | – | –
CC[C@H](C)[C@H]1C(=O)NCC(=O)N(C)[C@@H](Cc2ccccc2)C(=O)N[C@@H]([C@@H](C)O)C(=O)N(C)[C@@H](CC(C)C)C(=O)N[C@@H](CC(C)C)C(=O)N[C@@H](C)CC(=O)N(C)[C@H](C)C(=O)N(C)[C@@H](CC(C)C)C(=O)N[C@@H](Cc2ccccc2)C(=O)N(C)[C@@H](CC(C)C)C(=O)N[C@@H](C(C)C)C(=O)N1C [DP-757] (cyclo(F[NMeL]V[NMeI]G[NMeF]T[NMeL]L[β3hA][dNMeA][NMeL])) | – | – | 33 ×10⁻⁶ cm/s | 124 µL/min/mg
CC[C@H](C)[C@H]1C(=O)N[C@@H]([C@@H](C)O)C(=O)N[C@@H](Cc2ccccc2)C(=O)N2CCC[C@H]2C(=O)NCC(=O)N(C)[C@@H](CC(C)C)C(=O)N[C@H](C(=O)N2CCCCC2)CC(=O)N[C@H](C)C(=O)N[C@@H](Cc2ccccc2)C(=O)N(C)[C@@H](CC(C)C)C(=O)N[C@@H](CC(C)C)C(=O)N1C [DP-227] ([dA]F[NMeL]L[NMeI]TFPG[NMeL]D-Piperidide; lactam N-11) | – | – | 38 ×10⁻⁶ cm/s | 141 µL/min/mg
CC(C)C[C@H]1C(=O)N(C)[C@@H](C)C(=O)N(C)[C@@H](Cc2ccccc2)C(=O)N[C@@H]([C@@H](C)O)C(=O)N(C)CC(=O)N(C)[C@@H](Cc2ccccc2)C(=O)N(C)[C@@H](CC(C)C)C(=O)N[C@@H](C)C(=O)N[C@H](C(=O)N2CCCCC2)CC(=O)N(C)[C@@H](C)C(=O)N(C)[C@@H](C)C(=O)N1C [DP-482] ([NMeA][NMeA][NMeL][NMeA][NMeF]T[Sar][NMeF][NMeL]AD-Piperidide; lactam N-11) | 3.7 ×10⁻⁶ cm/s | 11 µL/min/mg | – | –
CC[C@H](C)[C@H]1C(=O)N(C)[C@@H](CC(C)C)C(=O)N[C@@H](Cc2ccccc2)C(=O)N[C@@H]([C@@H](C)O)C(=O)N[C@@H](CC(C)C)C(=O)N(C)[C@@H](Cc2ccccc2)C(=O)N(C)[C@@H](C(C)C)C(=O)N[C@H](C(=O)N(C)CC(=O)N(C)[C@@H](C)C(=O)N(C)[C@@H](CC(C)C)C(=O)N[C@@H](C)C(=O)N2CCCCC2)CC(=O)N[C@H](C)C(=O)N[C@@H](C)C(=O)N1C [DP-670] ([dA]A[NMeI][NMeL]FTL[NMeF][NMeV]D[Sar][NMeA][NMeL]A-Piperidide; lactam N-10) | 12 ×10⁻⁶ cm/s | 22 µL/min/mg | – | –
